Experimental data published in PubChem BioAssay (NCI).
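These data come from cells grown in 96-well plates and exposed to compound for 48 hours at five concentrations. Abbreviation: GI50, concentration required for 50% inhibition of growth. The concentration for full growth arrest is given as TGI.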

Assays:
Assay in all cases: NCI anticancer screen, dose series, 48 h
786-0 renal = system: 786-0 renal
A498 renal = system: A498 renal
A549 NSCLC = system: A549 NSCLC
ACHN renal = system: ACHN renal
BT-549 breast = system: BT-549 breast
CAKI-1 renal = system: CAKI-1 renal
CCRF-CEM leukemia = system: CCRF-CEM leukemia
COLO 205 colon = system: COLO 205 colon
DU-145 prostate = system: DU-145 prostate
EKVX NSCLC = system: EKVX NSCLC
HCC-2998 colon = system: HCC-2998 colon
HCT-116 colon = system: HCT-116 colon
HCT-15 colon = system: HCT-15 colon
HL-60(TB) leukemia = system: HL-60(TB) leukemia
HOP-62 NSCLC = system: HOP-62 NSCLC
HOP-92 NSCLC = system: HOP-92 NSCLC
HS 578T breast = system: HS 578T breast
HT29 colon = system: HT29 colon
IGROV1 ovarian = system: IGROV1 ovarian
K-562 leukemia = system: K-562 leukemia
KM12 colon = system: KM12 colon
LOX IMVI melanoma = system: LOX IMVI melanoma
M14 melanoma = system: M14 melanoma
MALME-3M melanoma = system: MALME-3M melanoma
MCF7 breast = system: MCF7 breast
MDA-MB-231 breast = system: MDA-MB-231 breast
MDA-MB-435 = system: MDA-MB-435
MOLT-4 leukemia = system: MOLT-4 leukemia
NCI-H23 lung = system: NCI-H23 lung
NCI-H460 lung = system: NCI-H460 lung
NCI-H522 lung = system: NCI-H522 lung
NCI/ADR-RES ovarian = system: NCI/ADR-RES ovarian
OVCAR-3 ovarian = system: OVCAR-3 ovarian
OVCAR-4 ovarian = system: OVCAR-4 ovarian
OVCAR-5 ovarian = system: OVCAR-5 ovarian
OVCAR-8 ovarian = system: OVCAR-8 ovarian
PC-3 prostate = system: PC-3 prostate
RPMI-8226 leukemia = system: RPMI-8226 leukemia
RXF 393 renal = system: RXF 393 renal
SF-268 CNS = system: SF-268 CNS
SF-295 CNS = system: SF-295 CNS
SF-539 CNS = system: SF-539 CNS
SK-MEL-2 melanoma = system: SK-MEL-2 melanoma
SK-MEL-28 melanoma = system: SK-MEL-28 melanoma
SK-MEL-5 melanoma = system: SK-MEL-5 melanoma
SN12C renal = system: SN12C renal
SNB-19 CNS = system: SNB-19 CNS
SNB-75 CNS = system: SNB-75 CNS
SR leukemia = system: SR leukemia
SW-620 colon = system: SW-620 colon
T-47D breast = system: T-47D breast
TK-10 renal = system: TK-10 renal
U251 CNS = system: U251 CNS
UACC-257 melanoma = system: UACC-257 melanoma
UACC-62 melanoma = system: UACC-62 melanoma
UO-31 renal = system: UO-31 renal

CN(C)Cc1ccc(NC(=O)c2cncc(C#Cc3cnc(N)c4ncccc34)c2)cc1C(F)(F)F
GI50 (786-0 renal): 1.77 µM
TGI (786-0 renal): 3.26 µM
GI50 (A498 renal): 1.5 µM
TGI (A498 renal): 4.63 µM
GI50 (A549 NSCLC): 1.67 µM
TGI (A549 NSCLC): 3.41 µM
GI50 (ACHN renal): 1.52 µM
TGI (ACHN renal): 2.89 µM
GI50 (BT-549 breast): 2.21 µM
TGI (BT-549 breast): 4.36 µM
GI50 (CAKI-1 renal): 3.48 µM
TGI (CAKI-1 renal): 11.5 µM
GI50 (CCRF-CEM leukemia): 1.34 µM
TGI (CCRF-CEM leukemia): 3.57 µM
GI50 (COLO 205 colon): 0.293 µM
TGI (COLO 205 colon): 14 µM
GI50 (DU-145 prostate): 1.73 µM
TGI (DU-145 prostate): 3.16 µM
GI50 (EKVX NSCLC): 1.71 µM
TGI (EKVX NSCLC): 3.36 µM
GI50 (HCC-2998 colon): 1.62 µM
TGI (HCC-2998 colon): 3.16 µM
GI50 (HCT-116 colon): 1.08 µM
TGI (HCT-116 colon): 2.33 µM
GI50 (HCT-15 colon): 1.5 µM
TGI (HCT-15 colon): 3.1 µM
GI50 (HL-60(TB) leukemia): 0.937 µM
TGI (HL-60(TB) leukemia): 2.51 µM
GI50 (HOP-62 NSCLC): 1.57 µM
TGI (HOP-62 NSCLC): 3.48 µM
GI50 (HOP-92 NSCLC): 1.04 µM
TGI (HOP-92 NSCLC): 4.66 µM
GI50 (HS 578T breast): 1.4 µM
TGI (HS 578T breast): 3.12 µM
GI50 (HT29 colon): 0.133 µM
TGI (HT29 colon): 1.86 µM
GI50 (IGROV1 ovarian): 1.47 µM
TGI (IGROV1 ovarian): 2.97 µM
TGI (K-562 leukemia): 1.02 µM
GI50 (KM12 colon): 0.0759 µM
TGI (KM12 colon): 1.4 µM
GI50 (LOX IMVI melanoma): 0.994 µM
TGI (LOX IMVI melanoma): 2.24 µM
GI50 (M14 melanoma): 0.0802 µM
TGI (M14 melanoma): 1.33 µM
GI50 (MALME-3M melanoma): 0.104 µM
TGI (MALME-3M melanoma): 0.956 µM
GI50 (MCF7 breast): 1.63 µM
TGI (MCF7 breast): 3.33 µM
GI50 (MDA-MB-231 breast): 1.07 µM
TGI (MDA-MB-231 breast): 2.36 µM
GI50 (MDA-MB-435): 0.376 µM
TGI (MDA-MB-435): 1.88 µM
GI50 (MOLT-4 leukemia): 0.701 µM
TGI (MOLT-4 leukemia): 2.75 µM
GI50 (NCI-H23 lung): 1.25 µM
TGI (NCI-H23 lung): 2.68 µM
GI50 (NCI-H460 lung): 1.67 µM
TGI (NCI-H460 lung): 3.12 µM
GI50 (NCI-H522 lung): 1.93 µM
TGI (NCI-H522 lung): 4.07 µM
GI50 (NCI/ADR-RES ovarian): 1.8 µM
TGI (NCI/ADR-RES ovarian): 3.67 µM
GI50 (OVCAR-3 ovarian): 1.98 µM
TGI (OVCAR-3 ovarian): 3.8 µM
GI50 (OVCAR-4 ovarian): 1.16 µM
TGI (OVCAR-4 ovarian): 2.56 µM
GI50 (OVCAR-5 ovarian): 1.27 µM
TGI (OVCAR-5 ovarian): 2.6 µM
GI50 (OVCAR-8 ovarian): 1.82 µM
TGI (OVCAR-8 ovarian): 3.85 µM
GI50 (PC-3 prostate): 1.64 µM
TGI (PC-3 prostate): 3.04 µM
GI50 (RPMI-8226 leukemia): 1.24 µM
TGI (RPMI-8226 leukemia): 3.58 µM
GI50 (RXF 393 renal): 1.31 µM
TGI (RXF 393 renal): 2.88 µM
GI50 (SF-268 CNS): 1.66 µM
TGI (SF-268 CNS): 3.2 µM
GI50 (SF-295 CNS): 1.59 µM
TGI (SF-295 CNS): 2.98 µM
GI50 (SF-539 CNS): 1.36 µM
TGI (SF-539 CNS): 2.66 µM
GI50 (SK-MEL-2 melanoma): 1.56 µM
TGI (SK-MEL-2 melanoma): 27 µM
GI50 (SK-MEL-28 melanoma): 0.161 µM
TGI (SK-MEL-28 melanoma): 1.43 µM
GI50 (SK-MEL-5 melanoma): 1.17 µM
TGI (SK-MEL-5 melanoma): 2.41 µM
GI50 (SN12C renal): 1.54 µM
TGI (SN12C renal): 3.02 µM
GI50 (SNB-19 CNS): 1.89 µM
TGI (SNB-19 CNS): 3.5 µM
GI50 (SNB-75 CNS): 1.69 µM
TGI (SNB-75 CNS): 3.09 µM
GI50 (SR leukemia): 1.43 µM
TGI (SR leukemia): 3.44 µM
GI50 (SW-620 colon): 1.5 µM
TGI (SW-620 colon): 2.98 µM
GI50 (T-47D breast): 15.8 µM
TGI (T-47D breast): 65.3 µM
GI50 (TK-10 renal): 1.81 µM
TGI (TK-10 renal): 3.31 µM
GI50 (U251 CNS): 1.63 µM
TGI (U251 CNS): 3.13 µM
GI50 (UACC-257 melanoma): 0.673 µM
TGI (UACC-257 melanoma): 2.53 µM
GI50 (UACC-62 melanoma): 1.19 µM
TGI (UACC-62 melanoma): 2.53 µM
GI50 (UO-31 renal): 1.43 µM
TGI (UO-31 renal): 2.8 µM
